Data on 16 compounds can be found in patent US10308643B2, “Heterocyclic compound” (Takeda Pharmaceutical Company Limited, priority 2015, dated 2019).

Common to all, as to assay type: biochemical
In one test the target is T1, HDAC1 enzyme (Homo sapiens, UniProt Q13547).
T1 construct: transducing full length HDAC1 and HDAC6 genes into Sf-9 insect cells; GST; purchased SignalChem; host or cells: Sf-9 insect cells
Put plainly: HDAC1/6 Enzyme Inhibitory Assay (HDAC-Glo I/II Assay kit), HDAC1. Conditions: 1 μM test compound; wells without enzyme = 100% inhibition; read-out: HDAC1 inhibitory rate (%) (1 μM). The method, boiled down: (§1)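 Full-length human HDAC1 or HDAC6, GST-purified from Sf-9 cells, was preincubated with compound for 60 min at room temperature in Tris-HCl pH 7.5 buffer with MgCl2, KCl, NaCl, glutathione and Tween-20. HDAC-Glo I/II substrate-developer was then added and reacted for 20 min before luminescence was read. Inhibition was set relative to no-enzyme wells as 100% inhibition.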

In another test the target is T2, HDAC9 enzyme (Homo sapiens, UniProt Q9UKV0).
T2 construct: transducing full length HDAC9 gene into Sf-9 insect cells; made in house; host or cells: Sf-9 insect cells
T2 sequence (Q9UKV0 whole entry, species assumed): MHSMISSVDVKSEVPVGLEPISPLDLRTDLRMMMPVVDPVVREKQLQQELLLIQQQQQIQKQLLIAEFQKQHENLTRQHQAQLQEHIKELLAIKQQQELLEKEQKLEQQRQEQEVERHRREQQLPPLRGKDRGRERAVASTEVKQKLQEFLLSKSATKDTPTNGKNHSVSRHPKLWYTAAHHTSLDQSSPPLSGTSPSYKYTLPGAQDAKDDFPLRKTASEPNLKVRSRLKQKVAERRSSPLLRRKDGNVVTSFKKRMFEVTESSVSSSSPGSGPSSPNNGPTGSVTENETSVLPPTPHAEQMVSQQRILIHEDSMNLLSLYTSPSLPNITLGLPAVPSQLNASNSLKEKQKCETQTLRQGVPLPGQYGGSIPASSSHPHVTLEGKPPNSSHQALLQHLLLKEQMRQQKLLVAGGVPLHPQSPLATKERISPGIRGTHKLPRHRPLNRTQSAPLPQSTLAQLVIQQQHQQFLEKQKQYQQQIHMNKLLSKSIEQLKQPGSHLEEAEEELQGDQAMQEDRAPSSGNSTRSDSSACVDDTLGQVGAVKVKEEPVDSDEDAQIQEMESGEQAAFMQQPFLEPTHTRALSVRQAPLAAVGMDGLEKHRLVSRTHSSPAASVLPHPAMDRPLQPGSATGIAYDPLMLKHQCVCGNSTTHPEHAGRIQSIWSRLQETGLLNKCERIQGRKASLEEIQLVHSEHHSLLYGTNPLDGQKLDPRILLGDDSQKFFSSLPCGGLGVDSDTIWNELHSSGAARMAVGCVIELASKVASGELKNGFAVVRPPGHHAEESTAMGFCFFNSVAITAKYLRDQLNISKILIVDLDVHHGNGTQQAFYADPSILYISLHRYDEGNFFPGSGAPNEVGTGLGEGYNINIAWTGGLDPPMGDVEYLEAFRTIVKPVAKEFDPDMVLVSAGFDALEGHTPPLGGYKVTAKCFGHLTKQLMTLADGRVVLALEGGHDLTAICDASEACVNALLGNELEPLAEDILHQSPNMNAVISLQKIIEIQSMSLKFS
Put plainly: HDAC9 Enzyme Inhibitory Assay (HDAC-Glo class IIa). As to conditions: 1 μM test compound; wells without enzyme = 100% inhibition; read-out: HDAC9 inhibitory rate (%) (1 μM). The gist of the method:
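Luminescent HDAC-Glo class IIa readout after a 20 min room-temperature reaction; relative inhibition referenced to enzyme-free wells as 100%. Test compound first preincubated 60 min with Sf-9-expressed, Ni-NTA-purified full-length HDAC9 in pH 7.5 Tris buffer containing 135 mM NaCl, 0.6 mM glutathione and 0.01% Tween-20.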

The target in a further test is T3, HDAC6 enzyme (Homo sapiens, UniProt Q9UBN7).
T3 construct: transducing full length HDAC1 and HDAC6 genes into Sf-9 insect cells; GST; purchased SignalChem; host or cells: Sf-9 insect cells
T3 sequence (Q9UBN7 1-1215): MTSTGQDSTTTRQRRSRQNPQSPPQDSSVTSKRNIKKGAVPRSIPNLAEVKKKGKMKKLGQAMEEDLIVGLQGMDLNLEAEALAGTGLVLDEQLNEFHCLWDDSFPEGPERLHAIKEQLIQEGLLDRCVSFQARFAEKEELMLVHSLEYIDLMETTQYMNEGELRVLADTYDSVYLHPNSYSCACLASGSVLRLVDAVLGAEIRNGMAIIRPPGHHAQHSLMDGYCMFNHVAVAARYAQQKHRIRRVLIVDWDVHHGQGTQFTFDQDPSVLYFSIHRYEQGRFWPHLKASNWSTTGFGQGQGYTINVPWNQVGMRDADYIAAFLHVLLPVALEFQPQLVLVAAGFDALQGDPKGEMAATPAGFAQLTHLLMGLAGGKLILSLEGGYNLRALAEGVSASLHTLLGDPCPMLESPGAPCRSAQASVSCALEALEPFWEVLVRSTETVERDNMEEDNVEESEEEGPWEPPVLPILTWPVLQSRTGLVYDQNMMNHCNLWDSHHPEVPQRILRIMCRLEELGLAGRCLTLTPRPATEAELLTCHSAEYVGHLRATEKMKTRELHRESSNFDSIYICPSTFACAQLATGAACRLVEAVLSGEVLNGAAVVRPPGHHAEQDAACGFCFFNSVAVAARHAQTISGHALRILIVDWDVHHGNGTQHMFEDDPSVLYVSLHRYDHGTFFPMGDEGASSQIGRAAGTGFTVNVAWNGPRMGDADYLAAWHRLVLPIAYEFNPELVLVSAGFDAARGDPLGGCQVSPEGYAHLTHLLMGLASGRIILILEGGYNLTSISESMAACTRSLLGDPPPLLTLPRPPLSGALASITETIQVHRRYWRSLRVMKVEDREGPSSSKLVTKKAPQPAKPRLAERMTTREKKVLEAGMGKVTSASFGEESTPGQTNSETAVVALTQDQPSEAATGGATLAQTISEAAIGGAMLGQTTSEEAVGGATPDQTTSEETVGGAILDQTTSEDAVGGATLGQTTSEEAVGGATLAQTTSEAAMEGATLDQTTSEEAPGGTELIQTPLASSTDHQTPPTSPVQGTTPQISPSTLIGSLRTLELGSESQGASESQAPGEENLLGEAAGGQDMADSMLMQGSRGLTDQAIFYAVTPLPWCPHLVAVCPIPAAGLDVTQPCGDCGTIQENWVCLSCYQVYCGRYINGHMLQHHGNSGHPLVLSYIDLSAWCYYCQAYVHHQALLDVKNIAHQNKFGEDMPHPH
Put plainly: HDAC1/6 Enzyme Inhibitory Assay (HDAC-Glo I/II Assay kit), HDAC6. As to conditions: 1 μM test compound; wells without enzyme = 100% inhibition; read-out: HDAC6 inhibitory rate (%) (1 μM). The method, boiled down: as §1

T1 sequence (Q13547 whole entry): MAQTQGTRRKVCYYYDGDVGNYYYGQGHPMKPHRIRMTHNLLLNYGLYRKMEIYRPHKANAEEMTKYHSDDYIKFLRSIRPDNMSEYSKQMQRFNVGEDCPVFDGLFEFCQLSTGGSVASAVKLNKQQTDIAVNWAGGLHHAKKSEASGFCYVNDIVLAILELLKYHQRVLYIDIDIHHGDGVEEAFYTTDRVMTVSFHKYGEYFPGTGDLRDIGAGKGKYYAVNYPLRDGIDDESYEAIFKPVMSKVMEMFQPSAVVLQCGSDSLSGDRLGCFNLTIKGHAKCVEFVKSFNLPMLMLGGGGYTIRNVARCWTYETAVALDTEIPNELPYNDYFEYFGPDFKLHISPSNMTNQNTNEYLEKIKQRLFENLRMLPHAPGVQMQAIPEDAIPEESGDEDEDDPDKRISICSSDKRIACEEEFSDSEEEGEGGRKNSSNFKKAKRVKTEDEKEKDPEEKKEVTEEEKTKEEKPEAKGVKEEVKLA

As for `O=C(N[C@H]1CCCC[C@H]1N1Cc2ccc(-c3noc(C(F)(F)F)n3)cc2C1=O)C1CC1` [Example 86, N-((1S,2R)-2-(1-oxo-6-(5-(trifluoromethyl)-1,2,4-oxadiazol-3-yl)-1,3-dihydro-2H-isoindol-2-yl)cyclohexyl) cyclopropanecarboxamide], the inhibition at 1 µM at HDAC1 enzyme was determined as 80%; at HDAC9 enzyme, 92%; at HDAC6 enzyme it was 98%.

On to `CC1(C(=O)N[C@@H]2CCC(F)(F)C[C@H]2N2Cc3ccc(-c4noc(C(F)(F)F)n4)cc3C2=O)COC1` [Example 87, N-((1R,2R)-4,4-difluoro-2-(1-oxo-6-(5-(trifluoromethyl)-1,2,4-oxadiazol-3-yl)-1,3-dihydro-2H-isoindol-2-yl)cyclohexyl)-3-methyloxetane-3-carboxamide], for which the inhibition at 1 µM at HDAC1 enzyme stood at 1%; at HDAC9 enzyme it was 45%; at HDAC6 enzyme it was 99%.

As to `CC(C)(C)OC(=O)N1CC[C@@H](N2Cc3ncc(-c4noc(C(F)(F)F)n4)cc3C2=O)[C@H](c2ccccc2)C1` [Example 88, tert-butyl (3R,4R)-4-(5-oxo-3-(5-(trifluoromethyl)-1,2,4-oxadiazol-3-yl)-5,7-dihydro-6H-pyrrolo[3,4-b]pyridin-6-yl)-3-phenylpiperidine-1-carboxylate], the inhibition at 1 µM at HDAC1 enzyme stood at 79%; on HDAC9 enzyme, 97%; at HDAC6 enzyme it was 98%.

Take `O=C1c2cc(-c3noc(C(F)(F)F)n3)ccc2CN1[C@@H]1CCCC[C@H]1NS(=O)(=O)C1CC1` [Example 89, N-((1R,2R)-2-(1-oxo-6-(5-(trifluoromethyl)-1,2,4-oxadiazol-3-yl)-1,3-dihydro-2H-isoindol-2-yl)cyclohexyl) cyclopropanesulfonamide]: the figures for the inhibition at 1 µM at HDAC1 enzyme, at HDAC9 enzyme and on HDAC6 enzyme were 37%, 85% and 98%, respectively.

Regarding `O=C(CC1(O)CCCC1)N[C@@H]1CCCC[C@H]1N1Cc2ccc(-c3noc(C(F)(F)F)n3)cc2C1=O` [Example 91, 2-(1-hydroxycyclopentyl)-N-((1R,2R)-2-(1-oxo-6-(5-(trifluoromethyl)-1,2,4-oxadiazol-3-yl)-1,3-dihydro-2H-isoindol-2-yl)cyclohexyl)acetamide], the inhibition at 1 µM was found to be 11% on HDAC1 enzyme, 44% on HDAC9 enzyme and 99% on HDAC6 enzyme.

With `O=C1CC[C@H](C(=O)N[C@@H]2CCCC[C@H]2N2Cc3ccc(-c4noc(C(F)(F)F)n4)cc3C2=O)N1` [Example 92, 5-oxo-N-((1R,2R)-2-(1-oxo-6-(5-(trifluoromethyl)-1,2,4-oxadiazol-3-yl)-1,3-dihydro-2H-isoindol-2-yl)cyclohexyl)-D-prolinamide], the inhibition at 1 µM at HDAC1 enzyme came out at 0%; at HDAC9 enzyme it was 23%; at HDAC6 enzyme, 96%.

For `O=C1C[C@@H](C(=O)N[C@@H]2CCCC[C@H]2N2Cc3ccc(-c4noc(C(F)(F)F)n4)cc3C2=O)N1` [Example 93, (2S)-4-oxo-N-((1R,2R)-2-(1-oxo-6-(5-(trifluoromethyl)-1,2,4-oxadiazol-3-yl)-1,3-dihydro-2H-isoindol-2-yl)cyclohexyl)azetidine-2-carboxamide], the figures for the inhibition at 1 µM on HDAC1 enzyme, on HDAC9 enzyme and on HDAC6 enzyme were 2%, 42% and 95%, respectively.

As to `CN1CCC[C@@H]1C(=O)N[C@@H]1CCCC[C@H]1N1Cc2ccc(-c3noc(C(F)(F)F)n3)cc2C1=O` [Example 94, 1-methyl-N-((1R,2R)-2-(1-oxo-6-(5-(trifluoromethyl)-1,2,4-oxadiazol-3-yl)-1,3-dihydro-2H-isoindol-2-yl)cyclohexyl)-D-prolinamide], the values for the inhibition at 1 µM on HDAC1 enzyme, on HDAC9 enzyme and on HDAC6 enzyme were 5%, 24% and 99%, respectively.

For the compound `CC(C)(O)C(=O)N[C@@H]1CCCC[C@H]1N1Cc2ccc(-c3noc(C(F)(F)F)n3)cc2C1=O` [Example 95, 2-hydroxy-2-methyl-N-((1R,2R)-2-(1-oxo-6-(5-(trifluoromethyl)-1,2,4-oxadiazol-3-yl)-1,3-dihydro-2H-isoindol-2-yl)cyclohexyl)propanamide], the inhibition at 1 µM was determined as 3% on HDAC1 enzyme, 37% on HDAC9 enzyme and 100% on HDAC6 enzyme.

In the case of `CC(C)(O)CC(=O)N[C@@H]1CCCC[C@H]1N1Cc2ccc(-c3noc(C(F)(F)F)n3)cc2C1=O` [Example 96, 3-hydroxy-3-methyl-N-((1R,2R)-2-(1-oxo-6-(5-(trifluoromethyl)-1,2,4-oxadiazol-3-yl)-1,3-dihydro-2H-isoindol-2-yl)cyclohexyl)butanamide], the inhibition at 1 µM is 10% on HDAC1 enzyme, 50% at HDAC9 enzyme and 101% on HDAC6 enzyme.

On to `O=C(N[C@@H]1CCCC[C@H]1N1Cc2ccc(-c3noc(C(F)(F)F)n3)cc2C1=O)C1CCC1` [Example 97, N-((1R,2R)-2-(1-oxo-6-(5-(trifluoromethyl)-1,2,4-oxadiazol-3-yl)-1,3-dihydro-2H-isoindol-2-yl)cyclohexyl) cyclobutanecarboxamide], for which the inhibition at 1 µM worked out at 14% on HDAC1 enzyme, 59% on HDAC9 enzyme and 99% at HDAC6 enzyme.

`O=C(N[C@@H]1CCCC[C@H]1N1Cc2ccc(-c3noc(C(F)(F)F)n3)cc2C1=O)C1C[C@@H]1F` (stereo partly drawn) [Example 98, 2-fluoro-N-((1R,2R)-2-(1-oxo-6-(5-(trifluoromethyl)-1,2,4-oxadiazol-3-yl)-1,3-dihydro-2H-isoindol-2-yl)cyclohexyl) cyclopropanecarboxamide]: the inhibition at 1 µM on HDAC1 enzyme worked out at 4%; on HDAC9 enzyme, 55%; on HDAC6 enzyme, 99%.

For the compound `CC1(C)C(C(=O)N[C@@H]2CCCC[C@H]2N2Cc3ccc(-c4noc(C(F)(F)F)n4)cc3C2=O)C1(C)C` [Example 99, 2,2,3,3-tetramethyl-N-((1R,2R)-2-(1-oxo-6-(5-(trifluoromethyl)-1,2,4-oxadiazol-3-yl)-1,3-dihydro-2H-isoindol-2-yl)cyclohexyl) cyclopropanecarboxamide], the inhibition at 1 µM was 13% on HDAC1 enzyme, 51% on HDAC9 enzyme and 100% at HDAC6 enzyme.

Regarding `CC(C)(C#N)C(=O)N[C@@H]1CCCC[C@H]1N1Cc2ccc(-c3noc(C(F)(F)F)n3)cc2C1=O` [Example 100, 2-cyano-2-methyl-N-((1R,2R)-2-(1-oxo-6-(5-(trifluoromethyl)-1,2,4-oxadiazol-3-yl)-1,3-dihydro-2H-isoindol-2-yl)cyclohexyl)propanamide], the inhibition at 1 µM was 9% at HDAC1 enzyme, 73% on HDAC9 enzyme and 100% at HDAC6 enzyme.

With `Cn1cnc(C(=O)N[C@@H]2CCCC[C@H]2N2Cc3ccc(-c4noc(C(F)(F)F)n4)cc3C2=O)c1` [Example 101, 1-methyl-N-((1R,2R)-2-(1-oxo-6-(5-(trifluoromethyl)-1,2,4-oxadiazol-3-yl)-1,3-dihydro-2H-isoindol-2-yl)cyclohexyl)-1H-imidazole-4-carboxamide], the inhibition at 1 µM on HDAC1 enzyme came to 12%; on HDAC9 enzyme it was 68%; on HDAC6 enzyme, 98%.

On to `CC1CC1C(=O)N[C@@H]1CCCC[C@H]1N1Cc2ccc(-c3noc(C(F)(F)F)n3)cc2C1=O` (stereo partly drawn) [Example 102, 2-methyl-N-((1R,2R)-2-(1-oxo-6-(5-(trifluoromethyl)-1,2,4-oxadiazo-3-yl)-1,3-dihydro-2H-isoindol-2-yl)cyclohexyl) cyclopropanecarboxamide], for which the inhibition at 1 µM on HDAC1 enzyme is 7%; on HDAC9 enzyme it was 52%; at HDAC6 enzyme it was 99%.
